Common to all, as to assay type: cell-based
One experiment deals with Calu-3 (lung cancer). The experiment in a line: In vitro cytotoxicity of camptothecin analogues (CellTiter-Glo). The settings on record: Homo sapiens, Calu-3, 96 h; 4 d incubation, growth inhibition by CellTiter-Glo; read-out: pIC50 Calu-3 (converted). On the procedure:
Cytotoxicity of the camptothecin analogues was assessed in vitro on the following cancer cell lines: SK-BR-3 (breast cancer), SKOV-3 (ovarian cancer), Calu-3 (lung cancer), ZR-75-1 (breast cancer) and MDA-MB-468 (breast cancer).
Briefly, serial dilutions of camptothecin analogues shown in Table 5.1 were prepared in RPMI 1640+10% FBS, and 20 uL of each dilution was added to 384-well plates. Cells cultured in log-phase growth were detached by brief incubation in 0.05% Trypsin and resuspended in respective culturing media at 20,000 cells/mL (with the exception of ZR-75 cells, which were resuspended at 10,000 cells/mL). 50 uL of cell suspension was then added to the plates containing test articles. Cells were incubated with test articles for 4 d at 37° C. (with the exception of ZR-75 cells, which were incubated for 5 d). Growth inhibition was assessed by CellTiter-Glo® (Promega Corporation, Madison, WI) and luminescence was measured on a Synergy™ H1 plate reader (BioTek Instruments, Winooski, VT). IC50 values were determined by GraphPad Prism (GraphPad Software, San Diego, CA).

For experiment [1], the system named is HEC-1-A (uterine adenocarcinoma) spheroids. The experiment in a line: In vitro cytotoxicity of anti-FRα ADCs, 3D spheroids. Conditions: monoculture spheroids, 6-day treatment. On the procedure: (§1) The cytotoxicity capabilities of select ADCs from Example 12 were assessed in a panel of FRα-expressing cell line spheroids as described below. Cell lines used were IGROV-1 (ovarian adenocarcinoma), T-47D (breast carcinoma), OVCAR-3 (ovarian adenocarcinoma), HEC-1-A (uterine adenocarcinoma) and EBC-1 (lung carcinoma; FRα-negative).
(§2) Briefly, cells were seeded in Ultra-Low Attachment 384-well plates, centrifuged and incubated under standard culturing conditions to allow for spheroid formation and growth. Monoculture cell line spheroids were then treated with a titration of test article, generated in cell growth medium. Spheroids were incubated for 6 days under standard culturing conditions. After incubation, CellTiter-Glo® 3D reagent (Promega Corporation, Madison, WI) was spiked in all wells. Plates were incubated in the dark at room temperature for 1 hour and luminescence was quantified using a BioTek Cytation 5 Cell Imaging Multi-Mode Reader (Agilent Technologies, Inc., Santa Clara, CA). Based on blank wells (no test article added), percent cytotoxicity values were calculated and plotted against test article concentration using GraphPad Prism 9 software (GraphPad Software, San Diego, CA).

Experiment [2] has as its system OVCAR-3 (ovarian adenocarcinoma) spheroids. Described as above. The settings on record: monoculture spheroids, 6-day treatment. On the procedure: as §1, §2
For experiment [3], the system named is T-47D (breast carcinoma) spheroids. The experiment is described as above. Conditions: monoculture spheroids, 6-day treatment. As for the experimental part: as §1, §2
Experiment [4] deals with EBC-1 (lung carcinoma; FRα-negative) spheroids. The description is as above. Conditions: monoculture spheroids, 6-day treatment. As for the experimental part: as §1, §2
Experiment [5] has as its system IGROV-1 (ovarian adenocarcinoma) spheroids. The experiment is described as above. The settings on record: monoculture spheroids, 6-day treatment. As for the experimental part: as §1, §2

For `CC[C@@]1(O)C(=O)OCc2c1cc1n(c2=O)Cc2c-1nc1cc(F)c(OC)cc1c2CNC(=O)NCc1ccc(N)cc1` [Compound 135, (S)-1-(4-aminobenzyl)-3-((4-ethyl-8-fluoro-4-hydroxy-9-methoxy-3,14-dioxo-3,4,12,14-tetrahydro-1H-pyrano[3′,4′: 6,7]indolizino[1,2-b]quinolin-11-yl)methyl)urea], in the experiment on Calu-3 (lung cancer), the IC50 was 25.1 nM.

Take “v21995-MC-GGFG-DXd: "ADCs comprising the antibody palivizumab (v21995) were used as non-targeted controls"; drug-linker MC-GGFG-DXd”: the EC50 in experiment [1] was determined as 27.6 nM; in experiment [2], 46 nM; in experiment [3] it was 17.8 nM; in experiment [4], 24.4 nM; in experiment [5], 16.7 nM.

These data come from patent publication US20240269309A1, “CAMPTOTHECIN ANALOGUES, CONJUGATES AND METHODS OF USE” (priority 2021, published 2024).
